Test results published in PMC5514901, “Synthesis and evaluation of anthranilamide-based derivatives as FXa inhibitors” (Oncotarget, 2017).

How the values were obtained:
[1] = target: T1, human FXa (Homo sapiens, UniProt P00742); assay: Inhibition activity measurement against FXa (chromogenic substrate CS-11(22)); assay type: biochemical; conditions: human FXa; for IC50: chromogenic substrate, 37°C, read at 405 nm
T1 construct: purchased Hyphen BioMed
Experimental: The inhibition of FXa was measured using human FXa (Hyphen BioMed, city, Paris, FRA) and chromogenic substrate CS-11(22) (Hyphen BioMed, Paris, FRA) in 384-well microtiter plates at room temperature. […] 2 μL of FXa (56.8 nM), 16 μL of Tris buffer (adjust to pH 7.4 with HCl containing 0.3 M NaCl and 50 mM Tris) and 3 μL of test compound were added to the well, respectively. The negative control was composed of the same mixed solutions except replacing test compound with DMSO. […] After incubated at 37°C for 5 min, 8 μL of FXa substrate solution (3.5 mM) was added and then incubated at 37°C for 25 min. The FXa activity was measured at 405 nm using a SpectraMax M5 (Molecular Devices, Sunnyvale, CA, USA). The IC50 was calculated by the software named SPSS (IBM, North Castle, NY, USA) and the Probit function in it.

[2] = test system: human plasma; assay: Prothrombin time (PT) assay; assay type: biochemical; conditions: concentration doubling prothrombin time in human plasma
Experimental: A commercially available automatic coagulometer (Steellex Science Instrument Co., Ltd., Beijing, China) was employed to measure PT. The clotting times were also measured using the instrument itself, in accordance with the manufacturer's instructions. Increasing concentrations of inhibitor or solvent were added to human plasma and incubated for 3 min at 37°C. Prothrombin time (PT) was determined by automatic coagulometer.

[3] = test system: human FIIa (thrombin); set-up: method as in PMID 16305517; conditions: read-out: IC50 against thrombin; cited from earlier work

T1 sequence (P00742 235-488 limits assumed): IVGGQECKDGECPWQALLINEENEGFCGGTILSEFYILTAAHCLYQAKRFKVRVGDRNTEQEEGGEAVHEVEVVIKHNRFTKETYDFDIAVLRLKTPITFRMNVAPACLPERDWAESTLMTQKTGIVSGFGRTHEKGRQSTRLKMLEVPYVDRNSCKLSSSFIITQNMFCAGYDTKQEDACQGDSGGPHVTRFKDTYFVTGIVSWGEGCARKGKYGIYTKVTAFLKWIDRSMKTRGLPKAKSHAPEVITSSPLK
T1 sequence (P00742 41-179 partner limits assumed): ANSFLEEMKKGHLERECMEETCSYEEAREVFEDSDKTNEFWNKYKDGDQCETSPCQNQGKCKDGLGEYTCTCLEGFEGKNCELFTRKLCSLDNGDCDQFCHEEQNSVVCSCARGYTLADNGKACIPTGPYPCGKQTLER

O=C(Nc1ccccc1C(=O)Nc1ccc(-n2ccccc2=O)cc1)c1ccc(Br)s1 [6a, 5-bromo-N-(2-((4-(2-oxopyridin-1(2H)-yl)phenyl)carb-amoyl)phenyl)thiophene-2-carboxamide]
Ki [1]: 20.5 nM
IC50 [1]: 28.7 nM
2 × PT (Human) [2]: 8.4 µM
melting point: > 250 °C

O=C(Nc1ccc(Cl)cc1C(=O)Nc1ccc(-n2ccccc2=O)cc1)c1ccc(Cl)cc1Cl [6k-a, 2,4-dichloro-N-(4-chloro-2-((4-(2-oxopyridin-1(2H)-yl)phenyl)carbamoyl)phenyl)benzamide]
Ki [1]: 58.6 nM
IC50 [1]: 82 nM
2 × PT (Human) [2]: 16.9 µM
melting point: > 250 °C

O=C(NC[C@H]1CN(c2ccc(N3CCOCC3=O)cc2)C(=O)O1)c1ccc(Cl)s1 [rivaroxaban, reference compound]
2 × PT (Human) [2]: 0.2 µM
IC50 [3]: 6900 nM

O=C(Nc1ccc(Cl)cc1C(=O)Nc1ccc(N2CCOCC2=O)cc1)c1ccc(Br)s1 [6a-e, 5-bromo-N-(4-chloro-2-((4-(3-oxomorpholino)phenyl)carbamoyl)phenyl)thiophene-2-carboxamide]
IC50 [1]: 125 nM
2 × PT (Human) [2]: 3.8 µM
melting point: > 250 °C

Cc1ccc(NC(=O)c2ccc(Br)s2)c(C(=O)Nc2ccc(-n3ccccc3=O)cc2)c1 [6a-b, 5-bromo-N-(4-methyl-2-((4-(2-oxopyridin-1(2H)-yl)ph-enyl)carbamoyl)phenyl)thiophene-2-carboxamide]
Ki [1]: 13.4 nM
IC50 [1]: 18.8 nM
2 × PT (Human) [2]: 4.2 µM
melting point: > 250 °C

Cc1ccc(NC(=O)c2ccc(Cl)cc2Cl)c(C(=O)Nc2ccc(-n3ccccc3=O)cc2)c1 [6k-b, 2,4-dichloro-N-(4-methyl-2-((4-(2-oxopyridin-1(2H)-yl)phenyl)carbamoyl)phenyl)benzamide]
Ki [1]: 25.4 nM
IC50 [1]: 35.5 nM
2 × PT (Human) [2]: 11.3 µM
melting point: > 250 °C

Cc1ccc(NC(=O)c2ccc(Cl)nc2)c(C(=O)Nc2ccc(N3CCOCC3=O)cc2)c1 [6h-f, 6-chloro-N-(4-methyl-2-((4-(3-oxomorpholino)phenyl)carbamoyl)phenyl)nicotinamide]
IC50 [1]: 453 nM
melting point: > 250 °C

O=C(Nc1ccccc1C(=O)Nc1ccc(N2CCOCC2=O)cc1)c1ccc(Cl)cc1Cl [6k-d, 2,4-dichloro-N-(2-((4-(3-oxomorpholino)phenyl)carba-moyl)phenyl)benzamide]
IC50 [1]: 128 nM
melting point: > 250 °C

Cc1ccc(C(=O)Nc2ccccc2C(=O)Nc2ccc(-n3ccccc3=O)cc2)s1 [6b, 5-methyl-N-(2-((4-(2-oxopyridin-1(2H)-yl)phenyl)carb-amoyl)phenyl)thiophene-2-carboxamide]
IC50 [1]: > 1000 nM
melting point: > 250 °C

O=C(Nc1ccccc1C(=O)Nc1ccc(-n2ccccc2=O)cc1)c1ccc(Cl)cc1Cl [6k, 2,4-dichloro-N-(2-((4-(2-oxopyridin-1(2H)-yl)phenyl)arbamoyl)phenyl)benzamide]
Ki [1]: 17 nM
IC50 [1]: 23.8 nM
2 × PT (Human) [2]: 16.4 µM
melting point: > 250 °C

COc1ccc(C(=O)Nc2ccc(Cl)cc2C(=O)Nc2ccc(-n3ccccc3=O)cc2)cc1 [6l-a, 5-chloro-2-(4-methoxybenzamido)-N-(4-(2-oxopyridin-1(2H)-yl)phenyl)benzamide]
IC50 [1]: > 1000 nM
melting point: > 250 °C
